pIC50: −log10 of the molar value. Structures can show the parent of a compound that is named as a salt.
Target: muscarinic receptors in the rat central nervous system
Test: Binding affinity at muscarinic receptors in the rat central nervous system, [^3 H]-QNB IC50
Conditions: mean from one to three experiments, each in triplicate
Text: Binding affinities and agonist activity in a series of
amidine derivatives at muscarinic receptors in the rat
central nervous system. Data represent the mean from one
to three experiments, each performed in triplicate.

- pIC50: 4.30
SMILES: CN(C)NC(=O)C1CN=C(N)NC1 (stereo not shown) [CDD-0126-A, 2-Amino-1,4,5,6-tetrahydropyrimidine-5-carboxylic-(N,N-dimethyl)hydrazide HCl]

— patent publication US5618818A, “Muscarinic agonist compounds” (The University of Toledo, priority 1996, dated 1997)
